The conditions of data set [1]: animals.
Data set [2] has as its system sickle cell disease mouse model. The conditions noted are these: cited from earlier work.
For data set [3] the following is noted: human, single doses of 300 mg, 1000 mg, 2000 mg and 4000 mg (n=6 per dose). The protocol:
The study was a double-blind, placebo (n=8) controlled single ascending dose (SAD) trial examining 5-HMF doses of 300 mg, 1000 mg, 2000 mg and 4000 mg (n=6 per dose).

Data set [4] has as its system mice. The settings on record: simulated altitude of 9,500 meters; cited from earlier work.
A short description of data set [5]: hypoxic challenge test (12% oxygen, SpO2 by pulse oximeter). It is filed as in vivo, human. The protocol: The hypoxic challenge test was conducted it the following manner: using face masks and air tanks containing 12% oxygen (compared to 21% oxygen in normal air at sea level), subjects inhaled the 12% hypoxic mixture for 5 minutes at a time just prior to starting the dose of study medication (5-HMF or placebo, double-blind) and then again at each of the time intervals 0.75, 2, 4 and 8 hours after the dose. A finger tip oxygen sensing probe connected to a pulse oximeter provided continuous measurement of SpO2 values (percentage of hemoglobin containing at least one oxygen molecule) and the SpO2 values were recorded every 20 seconds during the hypoxic challenge and during a 3-minute recovery period (during which normal air was inspired). The hypoxia challenge was aborted if SpO2 values fell to less than 85%. FIG. 1 illustrates the effect of 5-HMF during a hypoxic challenge. The data compares the fall in mean SpO2 values of placebo and the 2000 mg dose of 5-HMF prior to a hypoxic challenge given at the 2 hour time point post-dose. The mean change in SpO2 levels from start is shown for each one-minute interval of the 5-minute hypoxic challenge. […] It is noteworthy that the difference between placebo and drug becomes greater as the level of hypoxia in the placebo subjects increases. […] Since the level of hypoxic challenge in this initial human study was moderate (no clinical symptoms of hypoxia were present), the impact of 5-HMF should be even greater when the hypoxic challenge is more extreme.
An illustration of the dose-dependent ability of 5-HMF to impact blood oxygenation during a hypoxic challenge is shown in FIG. 2. Because there are appreciable inter-individual differences in the magnitude of the decline of SpO2 in response to a hypoxic challenge, each subject (both placebo and 5-HMF) was tested for the decline in SpO2 at the 5 minute time point for both (i) the challenge given prior to the dose of placebo or 5-HMF and (ii) the challenge given 2 hours after the dose of placebo or 5-HMF. The dotted line in FIG. 2 represents the “baseline” amount of decline occurring during the challenge given prior to dosing placebo or 5-HMF. The results of the decline in SpO2 for each subject at the end the challenge given 2 hours post-dose results were compared to the subject's baseline amount. Thus each subject acted as his/her own control. The blue dots represent individual subject scores and the horizontal black line is the mean SpO2 change relative to the pre-dose hypoxic challenge.

With `O=Cc1ccc(CO)o1` [5-HMF, 5-hydroxymethyl-2-furfural], the “safety window suggested by repeat dose animal toxicology and safety data” value in data set [1] is “wide safety window in humans is likely”. Also, in data set [2], the “P50 of SCD Hb” value is “lower P50 (left shift)” and the “protection against lethal effects of hypoxia” value was “provides in vivo protection against the lethal effects of hypoxia”. In addition, the safety and tolerability entry in data set [3] is “safe and well tolerated”. Besides, the “survival under hypobaric hypoxia” value in data set [4] was “increase survival of mice”. Further, in data set [5] (300 mg dose, 2 hours post-dose), the “effect on blood oxygen saturation during hypoxia challenge compared to placebo” value is given as “small”. Also, the “mean change in ending SpO2 levels relative to the pre-dose hypoxic challenge” value in data set [5] (1000 mg dose, 2 hours post-dose, 5 minute time point of challenge) was “approximately 2.5 unit”. In addition, the “fall in mean SpO2 after one minute of inhalation of hypoxic air” value in data set [5] (2000 mg dose, challenge at 2 hour post-dose, 12% oxygen) stood at 5 units. The “effect on SpO2 during hypoxic challenge relative to placebo” value in data set [5] (2000 mg dose, challenge at 2 hour post-dose, from one minute on for the remainder of the 5-minute challenge) is recorded as “less severe decrease in SpO2 during the hypoxic challenge”. Besides, the “effect on blood oxygen saturation during hypoxia challenge compared to placebo” value in data set [5] (all dose levels (300-4000 mg), 2 hours post-dose) is on record as “increased the blood oxygen saturation of the test subjects compared to placebo at all dose levels”. For the same compound, the “difference from placebo of the most active dose levels” value in data set [5] (top three doses (1000, 2000, 4000 mg), p=0.0498) is given as “statistically significant”.

Source of the values: patent US9918958B2, “Treatment for hypoxia” (priority 2011, dated 2018).
